Measurements: patent publication US8697628B2, “Methods of using AMPD2 inhibitors for the treatment of fatty liver, obesity and diabetes” (The Regents of the University of Colorado, a body corporate, priority 2010, dated 2014)

Columns and labels:
AMPD2 = biological target: T1, AMPD2 (Homo sapiens, UniProt Q01433); test: AMPD2 regulation by fructose-1-phosphate; assay type: biochemical; settings: FIG. 15
T1 sequence (Q01433 1-825): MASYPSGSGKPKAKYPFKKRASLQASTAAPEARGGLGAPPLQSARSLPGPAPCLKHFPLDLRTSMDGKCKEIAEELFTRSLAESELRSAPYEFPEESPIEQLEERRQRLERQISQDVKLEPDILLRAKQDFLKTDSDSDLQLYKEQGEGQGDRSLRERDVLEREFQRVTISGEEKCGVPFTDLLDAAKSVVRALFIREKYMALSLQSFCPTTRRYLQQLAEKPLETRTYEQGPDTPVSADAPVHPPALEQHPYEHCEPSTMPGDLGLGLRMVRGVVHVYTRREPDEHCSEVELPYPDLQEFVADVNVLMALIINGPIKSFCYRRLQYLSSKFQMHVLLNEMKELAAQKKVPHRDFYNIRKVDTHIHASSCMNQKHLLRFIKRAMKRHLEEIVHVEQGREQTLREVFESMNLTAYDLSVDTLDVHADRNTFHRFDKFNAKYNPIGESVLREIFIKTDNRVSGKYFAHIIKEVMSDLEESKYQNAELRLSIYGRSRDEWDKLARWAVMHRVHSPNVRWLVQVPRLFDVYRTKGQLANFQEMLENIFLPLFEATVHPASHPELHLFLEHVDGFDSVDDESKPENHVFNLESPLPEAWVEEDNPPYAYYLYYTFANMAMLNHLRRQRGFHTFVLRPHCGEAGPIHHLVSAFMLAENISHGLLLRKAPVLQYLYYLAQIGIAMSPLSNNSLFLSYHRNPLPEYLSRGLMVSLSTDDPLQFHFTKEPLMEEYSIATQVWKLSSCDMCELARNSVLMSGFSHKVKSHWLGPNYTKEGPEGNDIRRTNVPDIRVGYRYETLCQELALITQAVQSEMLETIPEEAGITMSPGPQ
From the text: Fructokinase uses ATP to phosphorylate fructose to fructose-1-phosphate leading to a reduction of ATP and generation of AMP, leading to the activation of AMPD2.

HepG2 cells [1] = settings: with IMP
[2] = test system: fructose induced fatty liver; test: Fructose induced fatty liver and hypertriglyceridemia in rats; assay type: in vivo, Male Sprague Dawley rats
From the text: Fructose only and control diet rats also received daily i.p injections of vehicle. At the end of two weeks rats were sacrificed. […] FIG. 12A. […] FIG. 12B.

[3] = test system: AMPD isolated from squirrel liver (AMPD2); test: AMP deaminase activity by ammonia production; assay type: biochemical
Method: AMP deaminase activity was determined by estimating the production of ammonia by a modification of the method described by Chaney and Marbach. See, Chaney et al., Clin Chem., 1962, 8, 130-132; Ito et al., J Biochem., 1988, 103, 259-262; and Sims et al., Neurobiol Aging., 1998, 19, 385-391. Briefly, the reaction mixture consisted of 25 mM sodium citrate, pH 6.0, 50 mM potassium chloride, and different concentration of AMP. The enzyme reaction was initiated by the addition of the enzyme solution and incubated at 37° C. for 15 min. The reaction was stopped with the addition of the phenol/hypochlorite reagents: Reagent A (100 mM phenol and 0.050 g/L sodium nitroprusside in H2O) was added, followed by reagent B (125 mM sodium hydroxide, 200 mM dibasic sodium phosphate, and 0.1% sodium hypochlorite in H2O) and incubated for 30 min at 25° C. The absorbance of the samples was measured at 625 nm with a spectrophotometer. To determine the absolute specific activity of ammonia production (micromoles ammonia/min), a calibration curve was determined in the range of 5 μM to 1 mM of ammonia.
Using the procedure above, various AMPD2 inhibitors were assayed. […] For this assay AMPD isolated from squirrel liver was used, which only expresses AMPD2 and not the other AMPD isoforms.

AMP deaminase [4] = settings: cited from earlier work
HepG2 cells [5] = test: Fructose-stimulated HepG2 cells treated with metformin or AICAR; assay type: cell-based, human; settings: for rise in intracellular triglycerides in response to fructose: HepG2, fructose 5 mM; for fall in enoyl CoA hydratase-1 (ECH-1) levels (defect in fat oxidation): HepG2, fructose 5 mM for 72 hrs, densitometry of western blot
adenosine deaminase [6] = biological target: T2, adenosine deaminase (Homo sapiens, UniProt P00813); settings: cited from earlier work
T2 sequence (P00813 1-363): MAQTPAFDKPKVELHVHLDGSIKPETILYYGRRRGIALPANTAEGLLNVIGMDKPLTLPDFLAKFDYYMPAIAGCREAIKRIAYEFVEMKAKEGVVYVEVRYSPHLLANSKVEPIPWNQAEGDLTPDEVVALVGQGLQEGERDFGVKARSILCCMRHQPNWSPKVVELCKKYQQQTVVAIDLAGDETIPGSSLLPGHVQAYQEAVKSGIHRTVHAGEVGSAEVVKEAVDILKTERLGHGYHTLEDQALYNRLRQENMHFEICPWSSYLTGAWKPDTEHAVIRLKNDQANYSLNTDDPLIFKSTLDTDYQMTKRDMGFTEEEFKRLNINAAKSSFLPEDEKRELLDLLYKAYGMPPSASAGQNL

AMPD2 mRNA = test: Silencing of AMPD2 with shRNA in HepG2 cells; assay type: cell-based, human
From the text: An shRNA for AMPD2 was employed to silence human hepatic cells (HepG2). (FIGS. 3 and 4) The silencing vector pSM2-AMPD2 (V2HS—172668, Open Biosystems) incorporates a 22-base shRNAmir trigger designed to mimic a natural microRNA primary transcript. The target sequence is specific for human AMPD2 and has been selected based on thermodynamic criteria for optimal small RNA performance. The specific sequence is 5′-[…]-3′(SEQ ID NO: 1).
The immortalized human hepatocytes cell line, HepG2, was transfected with the silencing vector pSM2-AMPD2 using Lipofectamine LTX Plus (Invitrogen) as described by the manufacturer (FIG. 4). Briefly, cell cultures were grown to 90-95% confluence in normal growth media and in 24-well plates. Lipid-DNA complexes were prepared as per recommended protocols using growth media without serum. 100 μl of the lipid-DNA solution was added per well of attached cells and incubated for 4 hrs at 37° C. Wells were then diluted with 1.5 ml of normal growth media and incubated for an additional 24 hrs prior to addition of selective media containing 1 μg/mL Puromycin antibiotic. After 7 days, stable transfectants (clones) were selected with glass cloning rings, replated and a second colony selection was performed to provide a clean clone for analysis. Validation of AMPD2 gene knock down was performed by harvesting protein and performing a Western blot for protein expression. Clone #5 was subsequently used for the experiments and was designated as sAMPD2.
A key enzyme in Beta fatty acid oxidation, enoyl CoA hydratase-1 (ECH-1), was stimulated in control cells as well as fructose treated cells in which AMPD2 had been silenced. The inhibition of AMPD2 by sAMPD2 was accompanied by an upregulation of phosphorylated AMPkinase (Thr172) in both unstimulated and fructose stimulated hepatocytes, whereas total AMPK was not altered.
The stimulation of fat oxidation in AMPD2 knocked down hepatocytes was confirmed by measuring β hydroxybutyrate, a fat oxidation product (FIG. 5B).
The stimulation of phosphorylated AMP kinase in human hepatocytes (HepG2 cells) by silencing AMPD2 with shRNA as shown in FIG. 5A led to […] of target genes as noted by Western blot (FIG. 6A). For example, the phosphorylated form of Acetyl CoA Carboxylase (pACC) which is involved in triglyceride synthesis was induced by silencing AMPD2 in both unstimulated and fructose stimulated cells. […] Importantly, these changes blocked the triglyceride accumulation in HepG2 cells in response to fructose (FIG. 6B).
Silencing AMPD2 prevented the upregulation of KHK in response to fructose.

adenosine deaminase [7] = biological target: T2, adenosine deaminase; settings: cited from earlier work; remark: listed apart in the source
[8] = test system: AMP deaminase in isolated cardiomyoctes; settings: isolated cardiomyocytes; cited from earlier work
AMP deaminase [9] = settings: Ki as low as; cited from earlier work
[10] = test system: purified human cardiac AMP deaminase; settings: purified enzyme; cited from earlier work
[11] = unstimulated and fructose stimulated hepatocytes

Which AMPD2 activity (AMPD2) does the source give for `O=C(COP(=O)(O)O)[C@@H](O)[C@H](O)[C@H](O)CO` [fructose-1-phosphate] here?
Its AMPD2 activity is “increases”.

What does the source list for `Oc1ncnc2[nH]ncc12` [allopurinol]?
IMP-stimulated triglyceride accumulation (HepG2 cells [1]): partially blocked; rescue of the IMP-induced reduction in ECoAH (HepG2 cells [1]): cannot fully rescue

With `OC[C@H]1O[C@@H](n2cnc3c2NC=NC[C@H]3O)C[C@@H]1O` [pentostatin, deoxycoformycin] as the compound, how does the “rise in fasting serum triglycerides in response to fructose” value ([2]; at two weeks, 0.1 mg/kg daily i.p.) read?
Its value is “significantly reduced the rise”.

And the “rise in serum triglycerides in response to a bolus of fructose” value ([2]; at two weeks, fructose 2 g/kg body weight by gavage)?
Its value is “blocked the rise”.

And the “fatty liver (lipid deposits, Oil Red O stain)” value ([2]; fructose 20% in water two weeks, 0.1 mg/kg daily i.p.)?
Its value is “largely prevented”.

What about the “inhibition of AMPD2 activity” value ([3]; in the presence of 2 mM AMP) of the same compound?
Its value is 64%.

And the “inhibition of AMPD2 activity” value ([3]; in the presence of 10 mM AMP)?
The value was 72%.

And the AMP deaminase inhibition (AMP deaminase [4])?
The AMP deaminase inhibition was “block”.

Which “rise in intracellular triglycerides in response to fructose” value (HepG2 cells [5]) does the source give for `CN(C)C(=N)N=C(N)N` [metformin] here?
Its value is “prevented the rise”.

What about the “fall in enoyl CoA hydratase-1 (ECH-1) levels (defect in fat oxidation)” value (HepG2 cells [5]) of the same compound?
The value was “reversed”.

What does the source list for `OC[C@H]1O[C@@H](c2n[nH]c3cncnc23)[C@H](O)[C@@H]1O` [deaminoformycin]?
adenosine deaminase inhibition (adenosine deaminase [6]): block; AMP deaminase inhibition (AMP deaminase [4]): block

Which AMP deaminase inhibition (AMP deaminase [4]) does the source give for `OC[C@H]1O[C@@H](n2cnc3c2N=CNC[C@H]3O)[C@H](O)[C@@H]1O` [Coformycin] here?
The AMP deaminase inhibition was “inhibits”.

With `NC(=O)c1ncn([C@@H]2O[C@H](CO)[C@@H](O)[C@H]2O)c1N` [AICAR, aminoimidazole carboxamide ribonucleotide] as the compound, how does the AMPD2 activity ([3]; FIG. 8A) read?
The AMPD2 activity was “inhibits AMPD2 activity in a dose dependent manner”.

And the “rise in intracellular triglycerides in response to fructose” value (HepG2 cells [5])?
The value was “prevented the rise”.

And the “fall in enoyl CoA hydratase-1 (ECH-1) levels (defect in fat oxidation)” value (HepG2 cells [5])?
Its value is “reversed”.

With `OC[C@H]1C[C@@H](n2cnc3cncnc32)[C@H](O)[C@@H]1O` [carbocyclic nebularine] as the compound, how does the adenosine deaminase inhibition (adenosine deaminase [6]) read?
Its adenosine deaminase inhibition is “block”.

What about the AMP deaminase inhibition (AMP deaminase [4]) of the same compound?
Its AMP deaminase inhibition is “block”.

For “sAMPD2: silencing vector pSM2-AMPD2 with 22-base shRNAmir specific for human AMPD2, 5′-ACCTGGGAATCTGCTCATTGTT-3′; stable HepG2 clone #5 (the letters are possibly those of the target site)”, which “triglyceride accumulation in HepG2 cells in response to fructose” value (AMPD2 mRNA; FIG. 6B) is on record?
The value was “blocked”.

And the AMPD2 expression (AMPD2 mRNA; control HepG2 cells, Western blot)?
Its AMPD2 expression is “reduced”.

What about the “enoyl CoA hydratase-1 (ECH-1)” value (AMPD2 mRNA; control cells as well as fructose treated cells) of the same compound?
The value was “stimulated”.

What about the “increased AMPD2 expression” value (AMPD2 mRNA; fructose treated hepatocytes, Western blot) of the same compound?
The value was “blocked”.

And the “phosphorylated form of Acetyl CoA Carboxylase (pACC)” value (AMPD2 mRNA; unstimulated and fructose stimulated cells, Western blot)?
The value was “induced”.

And the “phosphorylated AMPkinase (Thr172)” value (AMPD2 mRNA; [11])?
The value was “upregulation”.

What about the “total AMPK” value (AMPD2 mRNA; [11]) of the same compound?
The value was “not altered”.

What about the “phosphorylated form of glycogen synthase (pGS)” value (AMPD2 mRNA; unstimulated conditions and in the presence of fructose) of the same compound?
Its value is “induced”.

With “3-[2-(3-carboxy-4-bromo-5,6,7,8-tetrahydronaphthyl)ethyl]-3,6,7,8-tetrahydroimidazo[4,5-d][1,3]diazepin-8-ol [compound 24b]” as the compound, how does the “activity for adenosine deaminase” value (adenosine deaminase [7]) read?
The value was “minimal activity”.

And the “concentration found to inhibit the enzyme” value [8]?
Its value is 0.5 mM.

And the Ki (AMP deaminase [9])?
The Ki was 2 nM.

What about the “concentration found to inhibit” value [10] of the same compound?
Its value is 0.5 µM.
